Test results: ChEMBL document CHEMBL1909046, “DrugMatrix in vitro pharmacology data”

target: T1, 3-hydroxy-3-methylglutaryl-coenzyme A reductase (Homo sapiens, UniProt P04035); design: species or system Escherichia coli; settings: not given;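 further: enzyme inhibition assay of HMG-CoA reductase using radiolabeled [14C]HMG-CoA as substrate; in other assays of this panel Not Active means under 50% inhibition at 10 µM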
T1 sequence (P04035 whole entry): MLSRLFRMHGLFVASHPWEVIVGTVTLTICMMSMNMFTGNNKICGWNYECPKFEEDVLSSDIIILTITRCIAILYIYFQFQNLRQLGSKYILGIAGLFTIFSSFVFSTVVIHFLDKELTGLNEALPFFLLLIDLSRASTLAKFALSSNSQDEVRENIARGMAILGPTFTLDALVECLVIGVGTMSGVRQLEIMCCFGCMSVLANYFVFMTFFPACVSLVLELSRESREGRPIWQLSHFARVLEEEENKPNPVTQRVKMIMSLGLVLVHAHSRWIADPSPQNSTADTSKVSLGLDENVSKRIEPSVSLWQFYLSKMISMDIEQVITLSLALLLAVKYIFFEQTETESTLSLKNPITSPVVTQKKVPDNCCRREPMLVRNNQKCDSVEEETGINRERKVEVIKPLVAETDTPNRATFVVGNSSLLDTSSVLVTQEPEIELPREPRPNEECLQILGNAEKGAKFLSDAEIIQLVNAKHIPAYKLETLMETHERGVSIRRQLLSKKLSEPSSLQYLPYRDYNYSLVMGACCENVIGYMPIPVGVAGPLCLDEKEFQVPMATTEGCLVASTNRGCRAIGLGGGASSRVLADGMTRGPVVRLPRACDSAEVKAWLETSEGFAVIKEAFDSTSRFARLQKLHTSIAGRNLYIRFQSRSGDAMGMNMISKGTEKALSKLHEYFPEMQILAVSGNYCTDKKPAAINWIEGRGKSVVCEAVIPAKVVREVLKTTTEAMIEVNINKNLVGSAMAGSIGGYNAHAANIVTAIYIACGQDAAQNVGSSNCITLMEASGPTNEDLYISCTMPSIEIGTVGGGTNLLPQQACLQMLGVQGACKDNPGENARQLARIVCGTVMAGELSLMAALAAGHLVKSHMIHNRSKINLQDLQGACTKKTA

Structure (SMILES) | IC50
COc1ccc2cc([C@H](C)C(=O)O)ccc2c1 [NAPROXEN] | Not Active
CC(C)[C@H]1CC[C@H](C(=O)N[C@H](Cc2ccccc2)C(=O)O)CC1 [NATEGLINIDE] | Not Active
CCN[C@@H]1C[C@H](N)[C@@H](O[C@H]2OC(CN)=CC[C@H]2N)[C@H](O)[C@H]1O[C@H]1OC[C@](C)(O)[C@H](NC)[C@H]1O [NETILMICIN] | Not Active
COC(=O)C1=C(C)NC(C)=C(C(=O)OCC(C)C)C1c1ccccc1[N+](=O)[O-] (centres undefined) [NISOLDIPINE] | Not Active
CCOC(=O)C1=C(C)NC(C)=C(C(=O)OC)C1c1cccc([N+](=O)[O-])c1 (centres undefined) [NITRENDIPINE] | Not Active
C#C[C@]1(OC(C)=O)CC[C@H]2[C@@H]3CCC4=CC(=O)CC[C@@H]4[C@H]3CC[C@@]21C [NORETHINDRONE ACETATE] | Not Active
COc1ccc2[nH]c([S+]([O-])Cc3ncc(C)c(OC)c3C)nc2c1 (centres undefined) [OMEPRAZOLE] | Not Active
Cc1nccn1CC1CCc2c(c3ccccc3n2C)C1=O (centres undefined) [ONDANSETRON] | Not Active

target: C-C chemokine receptor type 2 (Homo sapiens, UniProt P41597); assay type: cell membranes, CHO-K1, Membrane; settings: cho-k1; further: in other assays of this panel Not Active means under 50% inhibition at 10 µM
Sequence (P41597 whole entry): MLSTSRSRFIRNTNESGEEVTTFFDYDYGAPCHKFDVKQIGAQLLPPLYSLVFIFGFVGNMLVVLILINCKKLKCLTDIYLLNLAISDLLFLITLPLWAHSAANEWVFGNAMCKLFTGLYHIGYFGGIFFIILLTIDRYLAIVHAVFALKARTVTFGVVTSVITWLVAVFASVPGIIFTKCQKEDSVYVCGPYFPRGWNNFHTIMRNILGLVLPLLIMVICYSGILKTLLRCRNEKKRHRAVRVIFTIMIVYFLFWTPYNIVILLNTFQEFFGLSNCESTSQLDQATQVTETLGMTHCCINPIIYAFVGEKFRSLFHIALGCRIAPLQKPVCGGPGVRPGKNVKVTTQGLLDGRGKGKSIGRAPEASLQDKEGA

Structure (SMILES) | IC50
COc1ccc2cc([C@H](C)C(=O)O)ccc2c1 [NAPROXEN] | Not Active
CC(C)[C@H]1CC[C@H](C(=O)N[C@H](Cc2ccccc2)C(=O)O)CC1 [NATEGLINIDE] | Not Active
CCN[C@@H]1C[C@H](N)[C@@H](O[C@H]2OC(CN)=CC[C@H]2N)[C@H](O)[C@H]1O[C@H]1OC[C@](C)(O)[C@H](NC)[C@H]1O [NETILMICIN] | Not Active
COC(=O)C1=C(C)NC(C)=C(C(=O)OCC(C)C)C1c1ccccc1[N+](=O)[O-] (centres undefined) [NISOLDIPINE] | Not Active
CCOC(=O)C1=C(C)NC(C)=C(C(=O)OC)C1c1cccc([N+](=O)[O-])c1 (centres undefined) [NITRENDIPINE] | Not Active
C#C[C@]1(OC(C)=O)CC[C@H]2[C@@H]3CCC4=CC(=O)CC[C@@H]4[C@H]3CC[C@@]21C [NORETHINDRONE ACETATE] | Not Active
COc1ccc2[nH]c([S+]([O-])Cc3ncc(C)c(OC)c3C)nc2c1 (centres undefined) [OMEPRAZOLE] | Not Active
Cc1nccn1CC1CCc2c(c3ccccc3n2C)C1=O (centres undefined) [ONDANSETRON] | Not Active

tested on: not listed separately; experiment: DRUGMATRIX: Atrial Natriuretic Factor (ANF) radioligand binding (ligand: [125I] ANF (rat)); assay type: cell membranes, Cavia porcellus, Dunkin-Hartley, Adrenal gland, Membrane; settings: Not Active = under 50% inhibition at 10 µM

Structure (SMILES) | IC50 | Ki
COc1ccc2cc([C@H](C)C(=O)O)ccc2c1 [NAPROXEN] | Not Active | Not Active
CC(C)[C@H]1CC[C@H](C(=O)N[C@H](Cc2ccccc2)C(=O)O)CC1 [NATEGLINIDE] | Not Active | Not Active
CCN[C@@H]1C[C@H](N)[C@@H](O[C@H]2OC(CN)=CC[C@H]2N)[C@H](O)[C@H]1O[C@H]1OC[C@](C)(O)[C@H](NC)[C@H]1O [NETILMICIN] | Not Active | Not Active
COC(=O)C1=C(C)NC(C)=C(C(=O)OCC(C)C)C1c1ccccc1[N+](=O)[O-] (centres undefined) [NISOLDIPINE] | Not Active | Not Active
CCOC(=O)C1=C(C)NC(C)=C(C(=O)OC)C1c1cccc([N+](=O)[O-])c1 (centres undefined) [NITRENDIPINE] | Not Active | Not Active
C#C[C@]1(OC(C)=O)CC[C@H]2[C@@H]3CCC4=CC(=O)CC[C@@H]4[C@H]3CC[C@@]21C [NORETHINDRONE ACETATE] | Not Active | Not Active
COc1ccc2[nH]c([S+]([O-])Cc3ncc(C)c(OC)c3C)nc2c1 (centres undefined) [OMEPRAZOLE] | Not Active | Not Active
Cc1nccn1CC1CCc2c(c3ccccc3n2C)C1=O (centres undefined) [ONDANSETRON] | Not Active | Not Active

tested on: not listed separately; experiment: DRUGMATRIX: GABAA, Flunitrazepam, Central radioligand binding (ligand: [3H] Flunitrazepam); assay type: cell membranes, Rattus norvegicus, Wistar, Brain, Membrane; settings: Not Active = under 50% inhibition at 10 µM

Structure (SMILES) | IC50 | Ki
COc1ccc2cc([C@H](C)C(=O)O)ccc2c1 [NAPROXEN] | Not Active | Not Active
CC(C)[C@H]1CC[C@H](C(=O)N[C@H](Cc2ccccc2)C(=O)O)CC1 [NATEGLINIDE] | Not Active | Not Active
CCN[C@@H]1C[C@H](N)[C@@H](O[C@H]2OC(CN)=CC[C@H]2N)[C@H](O)[C@H]1O[C@H]1OC[C@](C)(O)[C@H](NC)[C@H]1O [NETILMICIN] | Not Active | Not Active
COC(=O)C1=C(C)NC(C)=C(C(=O)OCC(C)C)C1c1ccccc1[N+](=O)[O-] (centres undefined) [NISOLDIPINE] | Not Active | Not Active
CCOC(=O)C1=C(C)NC(C)=C(C(=O)OC)C1c1cccc([N+](=O)[O-])c1 (centres undefined) [NITRENDIPINE] | Not Active | Not Active
C#C[C@]1(OC(C)=O)CC[C@H]2[C@@H]3CCC4=CC(=O)CC[C@@H]4[C@H]3CC[C@@]21C [NORETHINDRONE ACETATE] | Not Active | Not Active
COc1ccc2[nH]c([S+]([O-])Cc3ncc(C)c(OC)c3C)nc2c1 (centres undefined) [OMEPRAZOLE] | Not Active | Not Active
Cc1nccn1CC1CCc2c(c3ccccc3n2C)C1=O (centres undefined) [ONDANSETRON] | Not Active | Not Active

target: 5-hydroxytryptamine receptor 2B (Homo sapiens, UniProt P41595); assay type: cell membranes, CHO-K1, Membrane; settings: cho-k1; further: in other assays of this panel Not Active means under 50% inhibition at 10 µM
Sequence (P41595 whole entry): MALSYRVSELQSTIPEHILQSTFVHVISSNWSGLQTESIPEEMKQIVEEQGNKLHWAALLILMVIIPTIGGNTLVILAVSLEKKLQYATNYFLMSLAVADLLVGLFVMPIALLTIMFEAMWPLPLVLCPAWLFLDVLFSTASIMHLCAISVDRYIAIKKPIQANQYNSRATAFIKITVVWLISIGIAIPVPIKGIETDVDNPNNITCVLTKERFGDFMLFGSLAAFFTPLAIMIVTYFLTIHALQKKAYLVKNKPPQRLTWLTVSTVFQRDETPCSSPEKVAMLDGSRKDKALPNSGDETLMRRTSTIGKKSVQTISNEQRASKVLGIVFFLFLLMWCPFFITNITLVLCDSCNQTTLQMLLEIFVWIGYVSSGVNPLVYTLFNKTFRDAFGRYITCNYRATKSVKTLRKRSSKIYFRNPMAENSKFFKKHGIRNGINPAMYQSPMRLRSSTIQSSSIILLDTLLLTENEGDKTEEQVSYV

Structure (SMILES) | IC50
COc1ccc2cc([C@H](C)C(=O)O)ccc2c1 [NAPROXEN] | Not Active
CC(C)[C@H]1CC[C@H](C(=O)N[C@H](Cc2ccccc2)C(=O)O)CC1 [NATEGLINIDE] | Not Active
CCN[C@@H]1C[C@H](N)[C@@H](O[C@H]2OC(CN)=CC[C@H]2N)[C@H](O)[C@H]1O[C@H]1OC[C@](C)(O)[C@H](NC)[C@H]1O [NETILMICIN] | Not Active
COC(=O)C1=C(C)NC(C)=C(C(=O)OCC(C)C)C1c1ccccc1[N+](=O)[O-] (centres undefined) [NISOLDIPINE] | Not Active
CCOC(=O)C1=C(C)NC(C)=C(C(=O)OC)C1c1cccc([N+](=O)[O-])c1 (centres undefined) [NITRENDIPINE] | Not Active
C#C[C@]1(OC(C)=O)CC[C@H]2[C@@H]3CCC4=CC(=O)CC[C@@H]4[C@H]3CC[C@@]21C [NORETHINDRONE ACETATE] | Not Active
COc1ccc2[nH]c([S+]([O-])Cc3ncc(C)c(OC)c3C)nc2c1 (centres undefined) [OMEPRAZOLE] | Not Active

same assay, conditions: read-out: IC50

Structure (SMILES) | IC50 [nM]
Cc1nccn1CC1CCc2c(c3ccccc3n2C)C1=O (centres undefined) [ONDANSETRON] | 717

same assay, conditions: read-out: Ki

Structure (SMILES) | Ki [nM]
Cc1nccn1CC1CCc2c(c3ccccc3n2C)C1=O (centres undefined) [ONDANSETRON] | 456

tested on: not listed separately; experiment: DRUGMATRIX: Glutamate, Kainate radioligand binding (ligand: [3H] Kainic acid); assay type: cell membranes, Rattus norvegicus, Wistar, Brain, Membrane; settings: Not Active = under 50% inhibition at 10 µM

Structure (SMILES) | IC50 | Ki
COc1ccc2cc([C@H](C)C(=O)O)ccc2c1 [NAPROXEN] | Not Active | Not Active
CC(C)[C@H]1CC[C@H](C(=O)N[C@H](Cc2ccccc2)C(=O)O)CC1 [NATEGLINIDE] | Not Active | Not Active
CCN[C@@H]1C[C@H](N)[C@@H](O[C@H]2OC(CN)=CC[C@H]2N)[C@H](O)[C@H]1O[C@H]1OC[C@](C)(O)[C@H](NC)[C@H]1O [NETILMICIN] | Not Active | Not Active
COC(=O)C1=C(C)NC(C)=C(C(=O)OCC(C)C)C1c1ccccc1[N+](=O)[O-] (centres undefined) [NISOLDIPINE] | Not Active | Not Active
CCOC(=O)C1=C(C)NC(C)=C(C(=O)OC)C1c1cccc([N+](=O)[O-])c1 (centres undefined) [NITRENDIPINE] | Not Active | Not Active
C#C[C@]1(OC(C)=O)CC[C@H]2[C@@H]3CCC4=CC(=O)CC[C@@H]4[C@H]3CC[C@@]21C [NORETHINDRONE ACETATE] | Not Active | Not Active
COc1ccc2[nH]c([S+]([O-])Cc3ncc(C)c(OC)c3C)nc2c1 (centres undefined) [OMEPRAZOLE] | Not Active | Not Active
Cc1nccn1CC1CCc2c(c3ccccc3n2C)C1=O (centres undefined) [ONDANSETRON] | Not Active | Not Active

tested on: not listed separately; experiment: DRUGMATRIX: Glutamate, AMPA radioligand binding (ligand: [3H] AMPA); assay type: cell membranes, Rattus norvegicus, Wistar, Cerebral cortex, Membrane; settings: Not Active = under 50% inhibition at 10 µM

Structure (SMILES) | IC50 | Ki
COc1ccc2cc([C@H](C)C(=O)O)ccc2c1 [NAPROXEN] | Not Active | Not Active
CC(C)[C@H]1CC[C@H](C(=O)N[C@H](Cc2ccccc2)C(=O)O)CC1 [NATEGLINIDE] | Not Active | Not Active
CCN[C@@H]1C[C@H](N)[C@@H](O[C@H]2OC(CN)=CC[C@H]2N)[C@H](O)[C@H]1O[C@H]1OC[C@](C)(O)[C@H](NC)[C@H]1O [NETILMICIN] | Not Active | Not Active
COC(=O)C1=C(C)NC(C)=C(C(=O)OCC(C)C)C1c1ccccc1[N+](=O)[O-] (centres undefined) [NISOLDIPINE] | Not Active | Not Active
CCOC(=O)C1=C(C)NC(C)=C(C(=O)OC)C1c1cccc([N+](=O)[O-])c1 (centres undefined) [NITRENDIPINE] | Not Active | Not Active
C#C[C@]1(OC(C)=O)CC[C@H]2[C@@H]3CCC4=CC(=O)CC[C@@H]4[C@H]3CC[C@@]21C [NORETHINDRONE ACETATE] | Not Active | Not Active
COc1ccc2[nH]c([S+]([O-])Cc3ncc(C)c(OC)c3C)nc2c1 (centres undefined) [OMEPRAZOLE] | Not Active | Not Active
Cc1nccn1CC1CCc2c(c3ccccc3n2C)C1=O (centres undefined) [ONDANSETRON] | Not Active | Not Active
